The subject of one series is RSV A2 strain. The series can be described thus: Assessment of RSV induced CPE in HEp2 cells (RSV A2 strain). To be noted: human respiratory syncytial virus, HEp2 cells; for IC50: HEp-2, 120 h, 1 MOI, 5 days, read-out: RSV A2 CPE IC50; for inhibition at 0.1 µg/mL / inhibition at 0.01 µg/mL: HEp-2; for inhibition at 0.1 µg/mL: Inhibition (%) at 0.1 μg/mL, read-out: RSV A2 CPE % Inhibition; for inhibition at 0.01 µg/mL: Inhibition (%) at 0.01 μg/mL. Format: cell-based. The method, then:
(§1) Assessment of RSV Induced CPE in HEp2 Cells
(§2) HEp2 cells were seeded (10^3/well/50 μL) in 384-well plates (Catalogue number 353962, BD Falcon, Oxford, UK) in […] containing 2 mM L-glutamine and 1 mM sodium pyruvate one day before infection. RSV A2 strain (#0709161v, NCPV, Public Health England, Wiltshire) or RSV B Washington strain (VR-1580, ATCC, Manassas, Va. 20108) virus solutions were prepared in serum free-DMEM with 2 mM L-glutamine and 1 mM sodium pyruvate, and then added (50 μL/well) to achieve a final virus concentration of 1 MOI. Simultaneously test compounds (0.5 μL DMSO solution) were added to 100 μL of HEp2 cell culture with virus solution to provide a final DMSO solution of 0.5%. Plates were incubated (37° C./5% CO2) for 5 days for studies using RSV A2 strain or 6 days for those using RSV B strain, and then resazurin sodium salt (5 μL of 0.03% solution; Sigma-Aldrich, Dorset, UK) was added to each well and the plate incubated for a further 6 hr (37° C./5% CO2). The fluorescence of each well [545 nm (excitation)/590 nm (emission)] was determined using a multi-scanner (Clariostar: BMG, Buckinghamshire, UK). The percentage inhibition for each well was calculated and the IC50, IC75 and IC90 values were calculated from the concentration-response curve generated for each test compound.

In the next series the test system is RSV B Washington strain. The series can be described thus: Assessment of RSV induced CPE in HEp2 cells (RSV B Washington strain). Format: cell-based. To be noted: human respiratory syncytial virus, HEp2 cells; for IC50: HEp-2, 144 h, 1 MOI, 6 days, read-out: RSV B CPE IC50; for inhibition at 1 µg/mL: HEp-2, Inhibition (%) at 1 μg/mL, read-out: RSV B CPE % Inhibition. As to the method:
as §1, §2

Series [1] is described as follows: Cell viability: resazurin assay. Format: cell-based, human. The settings on record: human, HEp2 cells. As to the method:
Cell Viability: Resazurin Assay
HEp2 cells were seeded in 384-well plates (10^3/well/50 μL; BD Falcon Ref 353962) in FBS DMEM (5%, containing 2 mM L-glutamine and 1 mM sodium pyruvate) one day before experimentation. Serum-free DMEM (50 μL) was added to test wells while for control wells the media was removed and sterile water (100 μL) was added. Test compounds (0.5 μL DMSO solution) were added to give a final DMSO concentration of 0.5%. Hep2 cells were incubated with each test compound for 5 days (37° C./5% CO2 in 5% FBS) and then resazurin stock solution (5 μL; 0.03%) was added to each well and the plate incubated for a further 6 hr (37° C./5% CO2). The fluorescence of each well at 545 nm (excitation) and 590 nm (emission) was determined using a multi-scanner (Clariostar: BMG Labtech). The percentage loss of cell viability was calculated for each well relative to vehicle (0.5% DMSO) treatment.
Any apparent increase in cell viability associated with test compound treatment relative to vehicle is consequently tabulated as a negative percentage. Where appropriate, a CC50 value was calculated from the concentration-response curve generated from the concentration-response curve for each test compound.

On to `Cc1ccc(C(=O)Nc2ccc(C(=O)N3CCc4cc(C(=O)Nc5c(C)cccc5F)sc4-c4ccccc43)cc2)c(N2CC3(CCOCC3)C2)n1` [Example 40, N-(2-fluoro-6-methylphenyl)-6-(4-(6-methyl-2-(7-oxa-2-azaspiro[3.5]nonan-2-yl)nicotinamido)benzoyl)-5,6-dihydro-4H-benzo[b]thieno[2,3-d]azepine-2-carboxamide], for which, in the series on RSV A2 strain, the IC50 amounted to 0.15 nM and the inhibition at 0.1 µg/mL worked out at 100%. In the series on RSV B Washington strain, the IC50 amounted to 41.3 nM and the inhibition at 1 µg/mL is 80%. This molecule came in with a CC50 at 5 days in series [1] of more than 14000 nM.

On to `Cc1cc(C(=O)Nc2ccc(C(=O)N3CCc4cc(C(=O)Nc5c(F)cccc5Cl)sc4-c4ccccc43)cc2)c(N2CC3(CCOCC3)C2)nc1C` [Example 46, N-(2-chloro-6-fluorophenyl)-6-(4-(5,6-dimethyl-2-(7-oxa-2-azaspiro[3.5]nonan-2-yl)nicotinamido)benzoyl)-5,6-di-hydro-4H-benzo[b]thieno[2,3-d]azepine-2-carboxamide], for which, in the series on RSV A2 strain, the IC50 was determined as 0.069 nM and the inhibition at 0.1 µg/mL stood at 100%. In the series on RSV B Washington strain, the IC50 was 7 nM and the inhibition at 1 µg/mL is 86%. Moreover, the CC50 at 5 days in series [1] is more than 13300 nM.

For the molecule `Cc1cnc(N2CC3(CCOCC3)C2)c(C(=O)Nc2ccc(C(=O)N3CCc4cc(C(=O)Nc5c(C)cccc5CO)sc4-c4ccccc43)cc2)c1` [Example 58, N-(2-(hydroxymethyl)-6-methylphenyl)-6-(4-(5-methyl-2-(7-oxa-2-azaspiro[3.5]nonan-2-yl)nicotinamido)benzoyl)-5,6-dihydro-4H-benzo[b]thieno[2,3-d]azepine-2-carboxamide], in the series on RSV A2 strain, the IC50 was 0.32 nM and testing at 0.01 µg/mL gave an inhibition of 100%. In the series with RSV B Washington strain, the IC50 stood at 8.6 nM and the inhibition at 1 µg/mL worked out at 100%. For the same molecule, in series [1], the CC50 at 5 days was more than 13700 nM.

Turning to `Cc1cnc(N2CCC3(CC2)COC3)c(C(=O)Nc2ccc(C(=O)N3CCc4cc(C(=O)Nc5c(F)cccc5F)sc4-c4ccccc43)cc2)c1` [Example 92, N-(2,6-difluorophenyl)-6-(4-(5-methyl-2-(2-oxa-7-aza-spiro[3.5]nonan-7-yl)nicotinamido)benzoyl)-5,6-dihydro-4H-benzo[b]thieno[2,3-d]azepine-2-carboxamide], in the series on RSV A2 strain, the IC50 turned out to be 0.17 nM and the inhibition at 0.01 µg/mL stood at 93%. In the series on RSV B Washington strain, the IC50 stood at 60.8 nM and the inhibition at 1 µg/mL amounted to 100%. Moreover, the CC50 at 5 days in series [1] is more than 13900 nM.

Take `O=C(Nc1ccc(Cl)cc1F)c1cc2c(s1)-c1ccccc1N(C(=O)c1ccc(NC(=O)c3cccnc3N3CC4(CCOCC4)C3)cc1)CC2` [Example 21, 6-(4-(2-(7-oxa-2-azaspiro[3.5]nonan-2-yl)nicotinamido)benzoyl)-N-(4-chloro-2-fluorophenyl)-5,6-dihydro-4H-benzo[b]thieno[2,3-d]azepine-2-carboxamide]: in the series with RSV A2 strain, the IC50 was 1.3 nM and the inhibition at 0.1 µg/mL stood at 100%. Also, in the series on RSV B Washington strain, the IC50 came to 100 nM and the inhibition at 1 µg/mL was 73%. In addition, the half-maximal cytotoxic concentration (CC50) at 5 days in series [1] is more than 13800 nM.

On to `Cc1cnc(N2CC3(CCOCC3)C2)c(C(=O)Nc2ccc(C(=O)N3CCc4cc(C(=O)Nc5ccccc5Cl)sc4-c4ccccc43)cc2)c1` [Example 34, N-(2-chlorophenyl)-6-(4-(5-methyl-2-(7-oxa-2-azaspiro [3.5]nonan-2-yl)nicotinamido)benzoyl)-5,6-dihydro-4H-benzo[b]thieno[2,3-d]azepine-2-carboxamide], for which, in the series with RSV A2 strain, the IC50 is 0.11 nM and the inhibition at 0.1 µg/mL came to 100%. Besides, in the series on RSV B Washington strain, the IC50 amounted to 38.5 nM and the inhibition at 1 µg/mL was determined as 86%. In series [1], the 50% cytotoxic concentration (CC50) at 5 days was more than 13900 nM.

With `O=C(Nc1ccc(F)cc1F)c1cc2c(s1)-c1ccccc1N(C(=O)c1ccc(NC(=O)c3cc4ccccc4nc3N3CC4(CCOCC4)C3)cc1)CC2` [Example 85, 6-(4-(2-(7-oxa-2-azaspiro[3.5]nonan-2-yl)quinoline-3-carboxamido)benzoyl)-N-(2,4-difluorophenyl)-5,6-dihydro-4H-benzo[b]thieno[2,3-d]azepine-2-carboxamide], in the series with RSV A2 strain, the IC50 came to 3.5 nM and the inhibition at 0.1 µg/mL amounted to 95%. Besides, in the series with RSV B Washington strain, the IC50 is 13.5 nM and the inhibition at 1 µg/mL came out at 91%. The CC50 at 5 days in series [1] was more than 13200 nM.

In the case of `CCc1cnc(N2CC3(CCOCC3)C2)c(C(=O)Nc2ccc(C(=O)N3CCc4cc(C(=O)Nc5c(F)cccc5Cl)sc4-c4ccccc43)cc2)c1` [Example 61, N-(2-chloro-6-fluorophenyl)-6-(4-(5-ethyl-2-(7-oxa-2-azaspiro[3.5]nonan-2-yl)nicotinamido)benzoyl)-5,6-dihydro-4H-benzo[b]thieno[2,3-d]azepine-2-carboxamide], in the series on RSV A2 strain, the IC50 was found to be 0.13 nM and the inhibition at 0.1 µg/mL came to 97%. For the same molecule, in the series with RSV B Washington strain, the IC50 came out at 4.1 nM and the inhibition at 1 µg/mL is 100%. In series [1], this molecule had a CC50 at 5 days of more than 13300 nM.

In the case of `C#Cc1ccc(NC(=O)c2cc3c(s2)-c2ccccc2N(C(=O)c2ccc(NC(=O)c4cccnc4N4CC5(CCOCC5)C4)cc2)CC3)cc1` [Example 18, 6-(4-(2-(7-oxa-2-azaspiro[3.5]nonan-2-yl)nicotinamido)benzoyl)-N-(4-ethynylphenyl)-5,6-dihydro-4H-benzo[b] thieno[2,3-d]azepine-2-carboxamide], in the series on RSV A2 strain, the IC50 turned out to be 0.16 nM and the inhibition at 0.1 µg/mL came to 75%. For the same molecule, in the series on RSV B Washington strain, the IC50 was more than 1440 nM and the inhibition at 1 µg/mL came to 18%. Besides, the 50% cytotoxic concentration (CC50) at 5 days in series [1] was more than 14400 nM.

Consider `COCc1cnc(N2CC3(CCOCC3)C2)c(C(=O)Nc2ccc(C(=O)N3CCc4cc(C(=O)Nc5c(F)cccc5Cl)sc4-c4ccccc43)cc2)c1` [Example 67, N-(2-chloro-6-fluorophenyl)-6-(4-(5-(methoxymethyl)-2-(7-oxa-2-azaspiro[3.5]nonan-2-yl)nicotinamido)benzoyl)-5,6-dihydro-4H-benzo[b]thieno[2,3-d]azepine-2-carboxamide], for which, in the series with RSV A2 strain, the IC50 is 0.17 nM and the inhibition at 0.01 µg/mL stood at 100%. In the series with RSV B Washington strain, the 50% inhibitory concentration (IC50) was 6.5 nM and the inhibition at 1 µg/mL stood at 100%. Besides, in series [1], the cytotoxic concentration (CC50) at 5 days is more than 13100 nM.

Regarding `Cc1cc(C(=O)Nc2ccc(C(=O)N3CCc4cc(C(=O)Nc5ccccc5F)sc4-c4ccccc43)cc2)c(N2CC3(CCOCC3)C2)nc1C` [Example 43, 6-(4-(5,6-dimethyl-2-(7-oxa-2-azaspiro[3.5]nonan-2-yl)nicotinamido)benzoyl)-N-(2-fluorophenyl)-5,6-dihydro-4H-benzo[b]thieno[2,3-d]azepine-2-carboxamide], in the series with RSV A2 strain, the IC50 amounted to 0.12 nM and the inhibition at 0.1 µg/mL was determined as 100%. Besides, in the series on RSV B Washington strain, the IC50 is 59.4 nM and the inhibition at 1 µg/mL is 72%. In series [1], this molecule displayed a CC50 at 5 days of more than 14000 nM.

`Cc1cnc(N2CC3(CCOCC3)C2)c(C(=O)Nc2ccc(C(=O)N3CCc4cc(C(=O)Nc5c(F)cc(F)cc5F)sc4-c4ccccc43)c(F)c2)c1` [Example 59, 6-(2-fluoro-4-(5-methyl-2-(7-oxa-2-azaspiro[3.5]nonan-2-yl)nicotinamido)benzoyl)-N-(2,4,6-trifluorophenyl)-5,6-di-hydro-4H-benzo[b]thieno[2,3-d]azepine-2-carboxamide]: in the series on RSV A2 strain, the IC50 came out at 0.23 nM and the inhibition at 0.1 µg/mL came to 100%. In the series on RSV B Washington strain, the IC50 is 13.8 nM and the inhibition at 1 µg/mL came to 93%. Moreover, the CC50 at 5 days in series [1] is more than 13200 nM.

With `Cc1cnc(N2CCC3(CCOCC3)CC2)c(C(=O)Nc2ccc(C(=O)N3CCc4cc(C(=O)Nc5c(C)cccc5F)sc4-c4ccccc43)cc2)c1` [Example 95, N-(2-fluoro-6-methylphenyl)-6-(4-(5-methyl-2-(3-oxa-9-azaspiro[5.5]undecan-9-yl)nicotinamido)benzoyl)-5,6-di-hydro-4H-benzo[b]thieno[2,3-d]azepine-2-carboxamide], in the series with RSV A2 strain, the IC50 came to 2.4 nM and testing at 0.01 µg/mL gave an inhibition of 100%. Further, in the series on RSV B Washington strain, the IC50 was more than 1340 nM and the inhibition at 1 µg/mL was found to be 27%. The molecule also returned a CC50 at 5 days in series [1] of more than 13400 nM.

For the origin of these results see patent publication US10189863B2, “5,6-dihydro-4H-benzo[b]thieno-[2,3-d]azepine derivatives” (PULMOCIDE LIMITED, priority 2014, dated 2019).
